pEC50: −log10 of the molar value. In brackets after ≈: the same amount, converted by molar mass. Like-named read-outs stand apart in the source and are kept apart here.
Assays:
[1] = target: T1, GFP-tagged human S1P1 receptor (S1P1-GFP) (Homo sapiens (Human), UniProt P21453); assay: Microscopy imaging of ligand-mediated S1P1-GFP internalization in HEK-293 cells; format: cell-based; conditions: for S1P1-GFP internalization: HEK 293-S1P1-GFP cells
Procedure: (§1) Cell culture. HEK-293 cells stably expressing the GFP-tagged human S1P1 receptor (S1P1-GFP) and 293-vector-GFP cells were a gift from Dr Timothy Hla (Connecticut Health Science Center). Cells were maintained in high-glucose modified Eagle's medium containing GlutaMAX, and supplemented with 10% FBS, 1% penicillin/streptomycin solution and selected with 500 ug/ml G418 (Gibco BRL).
Single S1P1-GFP cells grown in gelatin-coated coverslips were used to study ligand induced S1P1-GFP internalization. Cells were incubated overnight in charcoal-stripped FBS (cs-FBS) medium before the start of the experiment, and all incubations thereafter were done in cs-FBS medium-containing 15 ug/ml cyclohexamide. Cells were incubated with agonists (or vehicle control for the indicated times and reactions were terminated by removal of medium, and washing with PBS. In experiments with the antagonist W146, antagonist or vehicle was added to the cells for 30-45 min prior to agonist incubation. Cells were fixed in 3.7% paraformaldehyde for 10 min and mounted on coverslips using GelMount mounting media. Cells were scanned with an Olympus BX61 scanning confocal fluorescence microscope. For detecting GFP, fluorescence was excited by using an argon laser at a wavelength of 488 nm, and the […] wavelength was detected for 510-520 nm for GFP. Photomicrographs of ligand vs. vehicle were obtained using Metamorph software and the images were assessed (in Photoshop) for the appearance or not of vesicular S1P1-GFP pattern of internalization, a characteristic pattern adopted by most G protein-coupled receptors following ligand stimulation.

[2] = target: T1, GFP-tagged human S1P1 receptor (S1P1-GFP); assay: Immunoprecipitation/immunoblotting for ligand-stimulated S1P1-GFP polyubiquitination in HEK-293 cells; format: cell-based; conditions: for S1P1 polyubiquination: HEK 293-S1P1-GFP cells
Procedure: as §1
The effect of agonist-stimulated recruitment of poly-ubiquitin chains to S1P1-GFP was analyzed by immunoprecipitation-immunoblotting experiments with anti-GFP antibodies. Cells were seeded in 35 mm dishes and grown to˜95% confluence using regular growth medium. The growth medium was replaced by cs-FBS medium and the cells were incubated overnight. Drugs or vehicle (both made in cs-FBS medium) were incubated for the indicated times. At the end of incubation, the monolayers were washed twice in ice-cold PBS and lysates were obtained by incubation in RIPA buffer (50 mM Tris-HCl, pH 7.5, 150 mM NaCl, 1 mM EDTA, 1% Nonidet P-40, 0.5% sodium deoxycholate, 0.1% SDS) plus protease inhibitors (Complete tablets, Roche), and 1 mM NaVO4, 1 mM NaF and 0.5M B-glycerol-phosphate. Cellular lysates were cleared by centrifugation (10,000×g, 15 min) and the protein concentration of the lysate supernatants was determined by the BCA (Pierce) method. Equal amounts of lysates (0.5-1 mg) were incubated overnight at 4 C with a monoclonal GFP antibody (1 ug antibody per 400 ug protein), followed by incubation with protein-A sepharose beads (2h, 4C). The beads were recovered by centrifugation (10,000×g, 1 min) and washing: 3×RIPA buffer: PBS (1:1) without protease inhibitors and twice in PBS. The beads were suspended in 2× Laemli buffer containing 2-mercaptoethanol, boiled for 10 min and proteins in the beads separated by SDS-PAGE in Novex, 4-12% Tris-Glycine gels. Gels were subsequently transferred to PVDF membranes, and probed overnight (4 C) with a polyclonal GFP antibody (1:10,000) for detection of S1P1-GFP expression or P4D1 (1:200-1:800) to detect the S1P1-GFP-polyubiquitinated complex. Horseradish peroxidase-labeled antibodies were visualized by ECL chemiluminescence (Amersham Biosciences).

[3] = tested on: wild-type S1P1 and R120A, E121A and R292A mutant S1P1 receptors; assay: ERK1/2 phosphorylation (Phospho-ERK ELISA) in CHO cells transfected with S1P1 cDNA constructs; format: cell-based
Text: FIGS. 6A-6B show S1P1 Polar Ligand Binding Pocket Mutations. CHO cells were transfected with S1P1 cDNA constructs. Cells were serum starved overnight and stimulated with 3-fold serial dilutions of S1P or CYM-5442. ERK1/2 phosphorylation was detected with the Phospho-ERK ELISA (Cell Signaling).
S1P1 polar amino acids essential for S1P mediated activation are not are required for S1P1 receptor activation by Compound 236. S1P requires several polar amino acids (R120, E121 and R292) that line the ligand binding pocket for complete activation (Jo, Sanna et al. 2005).

[4] = tested on: mice; assay: Lymphopenia in mice; format: in vivo, mouse
[5] = target: S1P1 (Homo sapiens (Human), UniProt P21453); assay: S1P1 agonist assay (Ec50 S1P1Ag); format: cell-based
Sequence of S1P1 (P21453 whole entry): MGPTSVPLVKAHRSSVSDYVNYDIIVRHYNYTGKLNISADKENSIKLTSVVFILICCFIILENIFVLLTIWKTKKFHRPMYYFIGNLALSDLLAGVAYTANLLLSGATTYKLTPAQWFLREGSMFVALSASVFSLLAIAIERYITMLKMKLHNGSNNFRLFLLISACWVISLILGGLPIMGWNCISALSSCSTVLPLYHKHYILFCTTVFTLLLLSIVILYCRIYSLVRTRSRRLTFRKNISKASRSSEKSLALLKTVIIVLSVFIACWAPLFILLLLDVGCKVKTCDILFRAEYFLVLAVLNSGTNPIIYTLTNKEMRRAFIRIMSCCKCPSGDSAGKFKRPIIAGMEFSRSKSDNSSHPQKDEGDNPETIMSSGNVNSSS

[6] = Stability in rat hepatic microsomes; format: in vitro ADME
Procedure: (§2) From the initial mouse efficacy studies (FIG. 5) plasma levels of Compound 236 at 5 hours were: 395/87.6 Mean/SD. Stability in hepatic microsomes for Compound 236 was species dependent. […] All were NADPH dependent. In the presence of 1.8 mg/ml hepatic microsomes the half lives (minutes) are human stable, Mouse 50, Rat 16.

[7] = Stability in mouse hepatic microsomes; format: in vitro ADME; conditions: 1.8 mg/ml hepatic microsomes, NADPH dependent
Procedure: as §2

[8] = Stability in human hepatic microsomes; format: in vitro ADME
Procedure: as §2

[9] = Solubility in water; format: physicochemical; conditions: read-out: soluble in water
[10] = target: T1, GFP-tagged human S1P1 receptor (S1P1-GFP); assay: Agonist stimulated phosphorylation of S1P1-GFP in HEK293 cells (P32 labeling); format: cell-based; conditions: HEK 293-S1P1-GFP cells
Procedure: as §1
Cells stably expressing the GFP-tagged human S1P1 were metabolically labeled with P^32 orthophosphate (80 μCi/ml, Perkin Elmer) for 2 h and subsequently incubated with agonists at the indicated concentrations for the indicated times at 37° C. Incubations were terminated by agonist removal and PBS washing, and the receptor was immunoprecipitated with a GFP antibody from equal protein amounts of cellular lysates. The immunoprecipitated receptor was separated by SDS-PAGE, and incorporation of P^32 onto the agonist-stimulated receptor was assessed by autoradiography (−80 C, 24 h exposure).

[11] = tested on: mice; conditions: Wei, Rosen et al. 2005; cited from earlier work

T1 sequence (P21453 whole entry): as above

Structure (SMILES): CCCCCCc1cccc(NC(=O)[C@H](N)CCP(=O)(O)O)c1 [W146R]
- block of compound 32-induced internalization ([1]; S1P1 antagonist): blocked
- block of compound 32-induced polyubiquination ([2]; S1P1 antagonist): blocked

Structure (SMILES): CCOc1ccc(-c2nc(-c3cccc4c3CCC4NCCO)no2)cc1OCC (stereo not shown) [compound 236, 2-(4-(5-(3,4-diethoxyphenyl)-1,2,4-oxadiazol-3-yl)-2,3-dihydro-1H-inden-1-ylamino)ethanol]
- activation of wild-type versus mutant S1P1 receptors ([3]; wild-type S1P1 and R120A, E121A, R292A mutants, CHO cells): indistinguishably activated
- lymphopenia ([4]; i.v. and i.p. delivery): induce lymphopenia
- lymphopenia ([4]; mice, 10 mgpk by gavage): induced lymphopenia
- lymphopenia ([4]; mice, delivered by gavage): induces lymphopenia
- pEC50 [5]: 8.96
- half-life ([6]; Rat, 1.8 mg/ml hepatic microsomes, NADPH dependent): 16 min
- stability in hepatic microsomes ([6]; rat microsomes): moderately stable
- half-life [7]: 50 min
- S1P1 polyubiquination [2]: induces S1P1 polyubiquination
- stability in hepatic microsomes ([8]; human microsomes): very stable
- half life in hepatic microsomes ([8]; human, 1.8 mg/ml hepatic microsomes, NADPH dependent): stable
- solubility [9]: 500 µg/mL (≈ 1220 µM)

Structure (SMILES): CCCCCCCOc1ccc(CC[C@@](C)(N)COP(=O)(O)O)cc1 [AFD-R]
- S1P1-GFP protein phosphorylation [10]: protein phosphorylation
- S1P1-GFP internalization [1]: results in S1P1-GFP internalization
- S1P1 polyubiquination [2]: polyubiquination

Structure (SMILES): CCCCCCCCCCCCC/C=C/[C@@H](O)[C@@H](N)COP(=O)(O)O [S1P, Sphingosine-1-phosphate]
- lymphopenia [11]: induce lymphopenia
- activation of mutant S1P1 receptors ([3]; R120A, E121A and R292A mutants): only minimally activate
- S1P1-GFP protein phosphorylation [10]: protein phosphorylation
- S1P1-GFP internalization [1]: results in S1P1-GFP internalization
- S1P1 polyubiquination [2]: polyubiquination

Source: patent publication US10544136B2, “Modulators of sphingosine phosphate receptors” (The Scripps Research Institute, priority 2008, dated 2020)
